In ChEMBL document CHEMBL1159243, “Chemical and biological investigation of the polar constituents of the starfish Luidia clathrata, collected in the Gulf of Mexico” (1995) one finds zone of inhibition data, which are given here for two molecules.

Each structure is given as a SMILES string.

For one test, the system named is Bacillus subtilis. The test can be described thus: Antimicrobial activity against Bacillus subtilis at 50 ug/disk after 24 to 72 hrs. The test is classed as functional. The following applies: read-out: IZ.
The next test has as its system Staphylococcus aureus. The test can be described thus: Antimicrobial activity against Staphylococcus aureus at 50 ug/disk after 24 to 72 hrs. The test is classed as functional. Particulars: read-out: IZ.

Consider `CC(C)[C@@H](O)CC[C@@H](C)[C@H]1C[C@H](OS(=O)(=O)O)[C@H]2[C@@H]3C[C@@H](O)[C@@]4(O)C[C@@H](O)CC[C@]4(C)[C@H]3CC[C@@]21C`, for which the zone of inhibition at 50 µg/disc in the test on Bacillus subtilis is 3 mm; in the test on Staphylococcus aureus, 1 mm.
Consider `C[C@H](CO)CCC[C@@H](C)[C@H]1[C@@H](O)[C@H](O)[C@H]2[C@@H]3[C@H](O)[C@@H](O)[C@H]4C[C@@H](O)CC[C@]4(C)[C@H]3CC[C@]12C`, for which the zone of inhibition at 50 µg/disc came to 2 mm with Bacillus subtilis and 1 mm in the test with Staphylococcus aureus.
